Reference: ChEMBL document CHEMBL4507307 (2021)
The source made the active and inactive calls. No cut-off for these calls is given here.

Assays:
[1] = target: 5-hydroxytryptamine receptor 5A (Homo sapiens, UniProt P47898); settings: Compound concentration 10.0 uM
[2] = target: Sodium-dependent dopamine transporter (Homo sapiens) (UniProt Q01959); settings: Compound concentration 10.0 uM
[3] = target: Histamine H3 receptor (Homo sapiens) (UniProt Q9Y5N1); settings: Compound concentration 10.0 uM
[4] = target: Histamine H4 receptor (Homo sapiens) (UniProt Q9H3N8); settings: Compound concentration 10.0 uM
[5] = target: Muscarinic acetylcholine receptor M4 (Homo sapiens) (UniProt P08173); settings: Compound concentration 10.0 uM
Histamine H1 receptor [6] = target: T1, Histamine H1 receptor (Homo sapiens, UniProt P35367); settings: Compound concentration 10.0 uM
[7] = target: Muscarinic acetylcholine receptor M2 (Homo sapiens) (UniProt P08172); settings: Compound concentration 10.0 uM
[8] = target: T2, GABA-A receptor; anion channel (Rattus norvegicus) (UniProt O09028+P15431+P18506+P18508+P19969+P20236+P23574+P23576+P28471+P28473+P30191+P62813+P63079+P63138+Q91ZM7+Q9ES14); settings: Compound concentration 10.0 uM
[9] = target: Sodium-dependent serotonin transporter (Homo sapiens) (UniProt P31645); settings: Compound concentration 10.0 uM
[10] = target: Sodium-dependent noradrenaline transporter (Homo sapiens) (UniProt P23975); settings: Compound concentration 10.0 uM
[11] = target: 5-hydroxytryptamine receptor 1D (Homo sapiens, UniProt P28221); settings: Compound concentration 10.0 uM
[12] = target: 5-hydroxytryptamine receptor 2B (Homo sapiens) (UniProt P41595); settings: Compound concentration 10.0 uM
[13] = target: T2, GABA-A receptor; anion channel (Rattus norvegicus); settings: Compound concentration 10.0 uM; remark: listed apart in the source
[14] = target: Serine/threonine-protein kinase SIK2 (Homo sapiens, UniProt Q9H0K1); test: NanoBRET (SGC Frankfurt) (SIK2)
[15] = target: Dual specificity tyrosine-phosphorylation-regulated kinase 1A (Homo sapiens, UniProt Q13627); test: NanoBRET (SGC Frankfurt) (DYRK1A)
[16] = target: Sigma intracellular receptor 2 (Homo sapiens, UniProt Q5BJF2); settings: Compound concentration 10.0 uM
[17] = target: Receptor-type tyrosine-protein kinase FLT3 (Homo sapiens, UniProt P36888, D835V); test: NanoBRET (SGC Frankfurt) (FLT3 (D835V))
[18] = target: Alpha-1A adrenergic receptor (Homo sapiens) (UniProt P35348); settings: Compound concentration 10.0 uM
[19] = target: Alpha-2B adrenergic receptor (Homo sapiens) (UniProt P18089); settings: Compound concentration 10.0 uM
D(2) dopamine receptor = D(2) dopamine receptor (Homo sapiens, UniProt P14416); settings: Compound concentration 10.0 uM
Histamine H1 receptor [20] = target: T1, Histamine H1 receptor; test: GPCRScan assay: inhibition of H1; set-up: radioligand conc. used [nm] 0.6 – 2.0, parental cells stable HEK
D(3) dopamine receptor = D(3) dopamine receptor (Homo sapiens, UniProt P35462); settings: Compound concentration 10.0 uM
[21] = target: 5-hydroxytryptamine receptor 2A (Homo sapiens, UniProt P28223); settings: Compound concentration 10.0 uM
[22] = target: Muscarinic acetylcholine receptor M3 (Homo sapiens) (UniProt P20309); settings: Compound concentration 10.0 uM
[23] = target: Dual specificity protein kinase CLK1 (Homo sapiens, UniProt P49759); test: NanoBRET (SGC Frankfurt) (CLK1)
[24] = target: 5-hydroxytryptamine receptor 3A (Homo sapiens) (UniProt P46098); settings: Compound concentration 10.0 uM
[25] = target: D(4) dopamine receptor (Homo sapiens) (UniProt P21917); settings: Compound concentration 10.0 uM
[26] = target: Receptor-type tyrosine-protein kinase FLT3 (Homo sapiens, UniProt P36888); test: NanoBRET (SGC Frankfurt) (FLT3)
[27] = target: D(1B) dopamine receptor (Homo sapiens) (UniProt P21918); settings: Compound concentration 10.0 uM
[28] = target: Sigma non-opioid intracellular receptor 1 (Homo sapiens, UniProt Q99720); settings: Compound concentration 10.0 uM
[29] = target: 5-hydroxytryptamine receptor 1E (Homo sapiens, UniProt P28566); settings: Compound concentration 10.0 uM
D(1A) dopamine receptor = D(1A) dopamine receptor (Homo sapiens, UniProt P21728); settings: Compound concentration 10.0 uM
[30] = target: Dual specificity protein kinase CLK4 (Homo sapiens, UniProt Q9HAZ1); test: NanoBRET (SGC Frankfurt) (CLK4)
[31] = target: Beta-2 adrenergic receptor (Homo sapiens) (UniProt P07550); settings: Compound concentration 10.0 uM
[32] = target: 5-hydroxytryptamine receptor 7 (Homo sapiens) (UniProt P34969); settings: Compound concentration 10.0 uM
Mu-type opioid receptor = Mu-type opioid receptor (Homo sapiens, UniProt P35372); settings: Compound concentration 10.0 uM
[33] = target: Delta-type opioid receptor (Homo sapiens) (UniProt P41143); settings: Compound concentration 10.0 uM
[34] = target: Kappa-type opioid receptor (Homo sapiens, UniProt P41145); settings: Compound concentration 10.0 uM
[35] = target: Alpha-1B adrenergic receptor (Homo sapiens) (UniProt P35368); settings: Compound concentration 10.0 uM
[36] = target: 5-hydroxytryptamine receptor 1B (Homo sapiens, UniProt P28222); settings: Compound concentration 10.0 uM
Histamine H2 receptor = Histamine H2 receptor (Homo sapiens, UniProt P25021); settings: Compound concentration 10.0 uM
[37] = target: Beta-1 adrenergic receptor (Homo sapiens) (UniProt P08588); settings: Compound concentration 10.0 uM
[38] = target: Muscarinic acetylcholine receptor M5 (Homo sapiens) (UniProt P08912); settings: Compound concentration 10.0 uM
[39] = target: 5-hydroxytryptamine receptor 2C (Homo sapiens) (UniProt P28335); settings: Compound concentration 10.0 uM

T1 sequence (P35367 whole entry): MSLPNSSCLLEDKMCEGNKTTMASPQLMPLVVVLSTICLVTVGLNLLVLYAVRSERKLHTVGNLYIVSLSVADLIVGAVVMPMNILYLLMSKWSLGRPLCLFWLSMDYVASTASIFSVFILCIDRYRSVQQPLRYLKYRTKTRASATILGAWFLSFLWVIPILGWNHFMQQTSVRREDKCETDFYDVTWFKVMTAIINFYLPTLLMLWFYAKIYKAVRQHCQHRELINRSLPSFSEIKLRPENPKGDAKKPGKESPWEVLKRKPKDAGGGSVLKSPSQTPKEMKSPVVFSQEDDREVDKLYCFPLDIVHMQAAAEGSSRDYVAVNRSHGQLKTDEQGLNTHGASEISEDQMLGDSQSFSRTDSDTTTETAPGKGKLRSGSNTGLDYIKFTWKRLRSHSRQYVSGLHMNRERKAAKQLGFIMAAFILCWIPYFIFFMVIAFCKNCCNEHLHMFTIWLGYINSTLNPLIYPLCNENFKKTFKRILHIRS
Mu-type opioid receptor, sequence (P35372 whole entry): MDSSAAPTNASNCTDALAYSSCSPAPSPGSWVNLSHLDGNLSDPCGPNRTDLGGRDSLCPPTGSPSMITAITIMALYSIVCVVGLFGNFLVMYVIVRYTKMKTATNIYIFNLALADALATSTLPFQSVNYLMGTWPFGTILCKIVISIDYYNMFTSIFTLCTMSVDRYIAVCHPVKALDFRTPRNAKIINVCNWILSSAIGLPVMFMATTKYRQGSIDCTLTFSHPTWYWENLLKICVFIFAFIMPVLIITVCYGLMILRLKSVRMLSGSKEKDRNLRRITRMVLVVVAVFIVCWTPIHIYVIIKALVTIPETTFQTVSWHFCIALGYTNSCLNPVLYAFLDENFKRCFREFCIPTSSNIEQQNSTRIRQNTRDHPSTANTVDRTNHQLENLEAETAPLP
5-hydroxytryptamine receptor 2B (Homo sapiens), sequence (P41595 whole entry): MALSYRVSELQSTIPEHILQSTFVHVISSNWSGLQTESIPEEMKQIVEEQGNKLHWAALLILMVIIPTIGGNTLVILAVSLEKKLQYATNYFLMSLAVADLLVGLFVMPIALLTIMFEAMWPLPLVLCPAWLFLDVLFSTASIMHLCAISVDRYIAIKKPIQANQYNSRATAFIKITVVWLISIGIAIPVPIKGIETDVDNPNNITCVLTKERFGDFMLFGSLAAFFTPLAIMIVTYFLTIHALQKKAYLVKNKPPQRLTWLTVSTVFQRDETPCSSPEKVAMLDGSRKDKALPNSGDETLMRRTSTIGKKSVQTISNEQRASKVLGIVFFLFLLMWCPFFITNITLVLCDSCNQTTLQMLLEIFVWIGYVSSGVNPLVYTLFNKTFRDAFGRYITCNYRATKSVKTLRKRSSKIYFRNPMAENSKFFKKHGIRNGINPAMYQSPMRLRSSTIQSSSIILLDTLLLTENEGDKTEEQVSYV
Muscarinic acetylcholine receptor M2 (Homo sapiens), sequence (P08172 whole entry): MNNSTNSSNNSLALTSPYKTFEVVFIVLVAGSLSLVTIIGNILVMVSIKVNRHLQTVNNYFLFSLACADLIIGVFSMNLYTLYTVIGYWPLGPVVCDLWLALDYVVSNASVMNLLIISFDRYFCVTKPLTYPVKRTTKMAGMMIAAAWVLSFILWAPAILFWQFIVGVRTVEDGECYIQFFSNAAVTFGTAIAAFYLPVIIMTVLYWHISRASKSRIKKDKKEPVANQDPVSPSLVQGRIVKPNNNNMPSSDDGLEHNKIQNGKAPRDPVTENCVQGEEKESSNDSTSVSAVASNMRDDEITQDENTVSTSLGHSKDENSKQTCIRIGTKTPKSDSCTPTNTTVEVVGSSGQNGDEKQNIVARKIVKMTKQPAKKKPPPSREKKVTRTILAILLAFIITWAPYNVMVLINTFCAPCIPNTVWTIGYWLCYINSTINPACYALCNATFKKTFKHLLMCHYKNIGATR
5-hydroxytryptamine receptor 1D, sequence (P28221 whole entry): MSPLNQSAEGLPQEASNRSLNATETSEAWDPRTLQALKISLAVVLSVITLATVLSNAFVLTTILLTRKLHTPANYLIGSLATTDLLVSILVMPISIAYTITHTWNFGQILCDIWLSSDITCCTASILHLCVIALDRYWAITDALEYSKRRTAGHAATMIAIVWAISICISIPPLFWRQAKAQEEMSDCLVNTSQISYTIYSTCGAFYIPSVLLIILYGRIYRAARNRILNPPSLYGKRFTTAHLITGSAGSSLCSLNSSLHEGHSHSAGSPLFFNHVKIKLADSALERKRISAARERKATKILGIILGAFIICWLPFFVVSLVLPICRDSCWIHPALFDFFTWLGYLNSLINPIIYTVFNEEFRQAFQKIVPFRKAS
5-hydroxytryptamine receptor 7 (Homo sapiens), sequence (P34969 whole entry): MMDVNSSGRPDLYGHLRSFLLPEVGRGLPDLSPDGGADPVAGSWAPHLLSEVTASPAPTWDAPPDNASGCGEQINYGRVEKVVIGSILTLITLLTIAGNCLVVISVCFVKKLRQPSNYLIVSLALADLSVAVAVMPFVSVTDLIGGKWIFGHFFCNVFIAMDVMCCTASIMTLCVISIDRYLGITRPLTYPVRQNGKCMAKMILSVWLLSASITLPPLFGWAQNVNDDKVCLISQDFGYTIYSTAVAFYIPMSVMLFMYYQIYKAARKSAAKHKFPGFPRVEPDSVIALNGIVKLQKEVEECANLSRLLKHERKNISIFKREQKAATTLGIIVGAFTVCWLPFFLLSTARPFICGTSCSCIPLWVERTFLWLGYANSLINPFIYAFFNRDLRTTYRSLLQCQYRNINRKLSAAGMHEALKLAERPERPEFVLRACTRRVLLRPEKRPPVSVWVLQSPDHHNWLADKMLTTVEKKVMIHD
Alpha-1B adrenergic receptor (Homo sapiens), sequence (P35368 whole entry): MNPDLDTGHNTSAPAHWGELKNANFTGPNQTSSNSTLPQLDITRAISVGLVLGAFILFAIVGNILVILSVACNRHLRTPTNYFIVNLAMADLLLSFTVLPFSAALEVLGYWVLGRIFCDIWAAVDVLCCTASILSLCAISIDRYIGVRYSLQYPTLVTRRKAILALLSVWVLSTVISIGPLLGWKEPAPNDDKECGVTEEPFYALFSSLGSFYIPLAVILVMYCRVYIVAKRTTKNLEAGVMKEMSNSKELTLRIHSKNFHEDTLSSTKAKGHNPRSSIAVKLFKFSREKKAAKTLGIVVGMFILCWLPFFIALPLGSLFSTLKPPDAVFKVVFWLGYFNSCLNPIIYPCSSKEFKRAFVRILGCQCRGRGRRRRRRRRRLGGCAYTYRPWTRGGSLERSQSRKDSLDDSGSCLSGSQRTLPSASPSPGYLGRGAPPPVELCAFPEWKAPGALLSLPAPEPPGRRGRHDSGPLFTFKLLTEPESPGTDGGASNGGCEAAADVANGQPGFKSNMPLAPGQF
5-hydroxytryptamine receptor 3A (Homo sapiens), sequence (P46098 whole entry): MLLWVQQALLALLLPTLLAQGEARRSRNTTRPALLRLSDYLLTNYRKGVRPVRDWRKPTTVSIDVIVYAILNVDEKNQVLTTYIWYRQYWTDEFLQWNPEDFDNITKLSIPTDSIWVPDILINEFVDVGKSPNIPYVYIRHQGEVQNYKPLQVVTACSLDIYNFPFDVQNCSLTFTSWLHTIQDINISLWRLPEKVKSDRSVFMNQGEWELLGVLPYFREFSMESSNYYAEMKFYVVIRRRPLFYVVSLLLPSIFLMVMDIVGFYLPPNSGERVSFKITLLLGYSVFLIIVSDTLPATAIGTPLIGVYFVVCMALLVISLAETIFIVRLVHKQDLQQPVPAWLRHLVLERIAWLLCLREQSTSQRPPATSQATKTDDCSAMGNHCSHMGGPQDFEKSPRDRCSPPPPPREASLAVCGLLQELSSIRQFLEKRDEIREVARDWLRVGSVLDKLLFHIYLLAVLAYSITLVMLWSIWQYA
Sodium-dependent serotonin transporter (Homo sapiens), sequence (P31645 whole entry, looked up): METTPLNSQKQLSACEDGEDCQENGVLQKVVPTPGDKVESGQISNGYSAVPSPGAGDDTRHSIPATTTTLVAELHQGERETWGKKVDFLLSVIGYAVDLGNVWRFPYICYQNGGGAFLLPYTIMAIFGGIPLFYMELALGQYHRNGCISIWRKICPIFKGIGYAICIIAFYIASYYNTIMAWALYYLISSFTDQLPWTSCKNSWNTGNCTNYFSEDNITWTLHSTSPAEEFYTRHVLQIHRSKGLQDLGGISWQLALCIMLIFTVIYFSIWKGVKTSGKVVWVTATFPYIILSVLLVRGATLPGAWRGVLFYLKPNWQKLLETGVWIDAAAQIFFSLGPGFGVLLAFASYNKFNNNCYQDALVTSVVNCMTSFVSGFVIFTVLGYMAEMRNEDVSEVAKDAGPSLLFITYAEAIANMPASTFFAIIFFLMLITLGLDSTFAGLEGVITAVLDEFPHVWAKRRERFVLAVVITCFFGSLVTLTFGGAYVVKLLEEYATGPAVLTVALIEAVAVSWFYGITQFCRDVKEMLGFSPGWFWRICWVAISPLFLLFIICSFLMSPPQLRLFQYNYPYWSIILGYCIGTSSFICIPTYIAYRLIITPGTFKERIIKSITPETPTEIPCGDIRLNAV
Alpha-1A adrenergic receptor (Homo sapiens), sequence (P35348 whole entry): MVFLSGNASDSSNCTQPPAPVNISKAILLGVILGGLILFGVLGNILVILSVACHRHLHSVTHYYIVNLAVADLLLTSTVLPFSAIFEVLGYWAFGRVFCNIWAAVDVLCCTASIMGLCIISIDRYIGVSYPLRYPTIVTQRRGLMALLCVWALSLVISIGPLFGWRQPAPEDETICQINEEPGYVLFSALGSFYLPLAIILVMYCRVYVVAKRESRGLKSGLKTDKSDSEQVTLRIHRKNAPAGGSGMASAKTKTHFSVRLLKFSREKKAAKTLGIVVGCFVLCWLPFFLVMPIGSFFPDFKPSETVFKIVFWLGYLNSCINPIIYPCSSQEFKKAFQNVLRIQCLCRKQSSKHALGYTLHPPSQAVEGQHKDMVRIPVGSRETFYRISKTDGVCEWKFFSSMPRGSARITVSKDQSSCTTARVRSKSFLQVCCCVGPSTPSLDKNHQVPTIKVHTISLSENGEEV
Sigma intracellular receptor 2, sequence (Q5BJF2 whole entry): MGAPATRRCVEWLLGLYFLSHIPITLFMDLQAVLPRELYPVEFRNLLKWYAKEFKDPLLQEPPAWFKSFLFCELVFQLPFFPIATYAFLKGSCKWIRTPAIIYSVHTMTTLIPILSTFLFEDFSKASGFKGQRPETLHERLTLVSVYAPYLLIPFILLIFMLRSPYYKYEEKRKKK

CN1CCN(C(=O)C(C)(C)c2ccc(C(=O)Nc3cn4cc(-c5cc(C(C)(C)C)cc(C(C)(C)C)c5)ccc4n3)cc2)CC1 [T3-CLK-N]
inhibition [1]: 83.2%
inhibition [2]: -0.51%
inhibition [3]: 43.8%
inhibition [4]: 31.9%
inhibition [5]: 0.99%
inhibition (Histamine H1 receptor [6]): 83%
inhibition [7]: 6.55%
inhibition [8]: 4.08%
inhibition [9]: 26.3%
inhibition [10]: 40.8%
inhibition [11]: 50.5%
inhibition [12]: 44.1%
inhibition [13]: 13.5%
IC50 [14]: > 10000 nM (not active)
IC50 [15]: > 10000 nM (not active)
inhibition [16]: 97.9%
IC50 [17]: > 10000 nM (not active)
inhibition [18]: 66.4%
inhibition [19]: 77.6%
inhibition (D(2) dopamine receptor): 57.5%
Ki (Histamine H1 receptor [20]; read-out: Ki): 1900 nM
Ki (Histamine H1 receptor [20]; read-out: pKi (converted)): 1320 nM
inhibition (D(3) dopamine receptor): 78.9%
inhibition [21]: 92.3%
inhibition [22]: 40.4%
IC50 [23]: > 10000 nM (not active)
inhibition [24]: 6.47%
inhibition [25]: 34.8%
IC50 [26]: > 10000 nM (not active)
inhibition [27]: 29.7%
inhibition [28]: 90%
inhibition [29]: 60.5%
inhibition (D(1A) dopamine receptor): 58.2%
IC50 [30]: > 10000 nM (not active)
inhibition [31]: 17.2%
inhibition [32]: 45.2%
inhibition (Mu-type opioid receptor): 55.7%
inhibition [33]: 46.2%
inhibition [34]: 54.4%
inhibition [35]: 50.5%
inhibition [36]: 66.9%
inhibition (Histamine H2 receptor): 86.8%
inhibition [37]: 28%
inhibition [38]: 30.8%
inhibition [39]: 83%

CN1CCN(C(=O)C(C)(C)c2ccc(C(=O)Nc3cn4cc(-c5ccncc5)ccc4n3)cc2)CC1 [T3-CLK]
inhibition [1]: 4%
inhibition [2]: 8.33%
inhibition [3]: 16.6%
inhibition [4]: 0.74%
inhibition [5]: 25.2%
inhibition (Histamine H1 receptor [6]): 54.9%
inhibition [7]: 3.82%
inhibition [8]: -5.11%
inhibition [9]: -3.55%
inhibition [10]: 5.3%
inhibition [11]: 5.95%
inhibition [12]: -7.63%
inhibition [13]: 7.47%
IC50 [14]: 125 nM (not active)
IC50 [15]: 32 nM
inhibition [16]: 13.4%
IC50 [17]: 138 nM (not active)
inhibition [18]: -5.18%
inhibition [19]: 19.3%
inhibition (D(2) dopamine receptor): 10.8%
Ki (Histamine H1 receptor [20]; read-out: Ki): 2150 nM
inhibition (D(3) dopamine receptor): 12.8%
inhibition [21]: -2.63%
inhibition [22]: 21.1%
IC50 [23]: 3.49 nM (active)
inhibition [24]: 1.81%
inhibition [25]: 9.12%
IC50 [26]: 668 nM (not active)
inhibition [27]: -7.3%
inhibition [28]: 16.9%
inhibition [29]: -1.52%
inhibition (D(1A) dopamine receptor): 4.41%
IC50 [30]: 1.98 nM (active)
inhibition [31]: 16.6%
inhibition [32]: -5.21%
inhibition (Mu-type opioid receptor): 5.33%
inhibition [33]: 4.05%
inhibition [34]: -6.32%
inhibition [35]: 4.68%
inhibition [36]: 7.83%
inhibition (Histamine H2 receptor): 19.4%
inhibition [37]: -7.22%
inhibition [38]: 9.31%
inhibition [39]: 12.4%
